Where “and” joins values, the source holds several entries; their conditions need not be identical. Equal values may be shown once.
Tests used:
DENV-2-eGFP = assay: microbe, parasite or virus in culture; assay type: cell-based, dengue virus; conditions: for effect on DENV replication: DENV-2-eGFP MOI 5, reversed by exogenous uridine 50 µg/ml; for SI (CC50/IC50): DENV-2-eGFP; for IC50: Dengue virus, DENV2, A549, 24 h
Experimental: (§1) Approximately 50% of confluent cells seeded in 96-well plates were infected with viruses in the presence of drugs or DMSO as a solvent control. At 24 h post-infection (hpi), cells were fixed with 4% paraformaldehyde at room temperature (RT) for 20 min, permeated with a 0.5% Triton X-100 buffer for 2 min, and blocked with 3% BSA for 30 min. Nuclei were stained with DAPI (Sigma) at RT for 20 min. Viral NS3 was stained with a mouse anti-NS3 monoclonal antibody (mAb)[47] followed by staining with an Alexa Fluor 488-conjugated goat anti-mouse IgG antibody (ThermoFisher) at RT for 1 h. Nine images from different fields per well were acquired and analyzed using an ImageXpress Micro XLS Widefield High-Content Analysis System (Molecular Devices, Sunnyvale, USA). To quantify viral infection, the fluorescence intensities of viral NS3 or eGFP from the reporter virus were measured using MetaXpress® (Molecular Devices, Sunnyvale, USA) and were calculated with a mock control (infection as 0%) and a DMSO solvent control (infection as 100%).

[1] = LDH release cytotoxicity assay; assay type: cell-based, human; conditions: human, A549 cells
Experimental: (§2) Cells were treated with compounds at the indicated concentrations for 24 h. The release of lactate dehydrogenase (LDH) was measured using a Cytotoxicity Detection Kit (Roche, Basel, Switzerland) after removing cell debris. Cells treated with 1% Triton X-100 were used to determine the maximal LDH release.

A549 cells [2] = assay: LDH release cytotoxicity assay; assay type: cell-based, human; conditions: 24 h; for CC50: A549 cells; for noncytotoxic concentrations: human A549 cells
Experimental: as §2

JEV-eGFP = assay: microbe, parasite or virus in culture; assay type: cell-based, Japanese encephalitis virus; conditions: for SI (CC50/IC50): JEV-eGFP; for IC50: Japanese encephalitis virus, A549, 24 h
Experimental: as §1

ZIKV = assay: High-content image analysis of ZIKV infection (NS3) in A549 cells; assay type: cell-based, Zika virus; conditions: ZIKV; for IC50: Zika virus, MOI 0.5, A549 cells, 24 h
Experimental: as §1

DENV-2 [3] = assay: Viral binding assay; assay type: cell-based, dengue virus; conditions: 1 µM, A549 cells, DENV-2 MOI 5, 4 °C 1 h
Experimental: A549 cells and DENV-2 separately pretreated with P12-23 (1 µM), P12-34 (1 µM) or heparin (100 unit/ml) at 37 ℃ for 1 h were mixed to allow for viral adsorption at a multiplicity of infection (MOI) of 5 at 4 °C for 1 h. After washing off unbound viruses, RNA was extracted using an RNeasy® Mini Kit (QIAGEN, Hilden, Germany), and viral titers were quantified by real-time RT-PCR as previously described[48] using DENV-2 primers (5′-[…]-3′ and 5′-[…]-3′) and β-actin primers (5′-[…]-3′ and 5′-[…]-3′). After the RNA was normalized to the internal control in each sample, the relative level of viral RNA was determined using the DMSO solvent control.

DENV-2 [4] = assay: Viral entry assay; assay type: cell-based, dengue virus; conditions: 1 µM, A549 cells, DENV-2 MOI 5
Experimental: A549 cells pretreated with P12-23 (1 µM), P12-34 (1 µM) or Pitstop®2 (5 µM) at 37 ℃ for 1 h were absorbed with DENV-2 (MOI 5) at 4 °C for 1 h. After removing the unbound viruses, cells were shifted to 37 ℃ for 30 min for viral entry. The cell surface-associated viruses were then removed by treatment with trypsin-EDTA (ThermoFisher) at 37 °C for 10 min. Viral entry indicated by E protein positivity was determined using a BD FACSCalibur Flow Cytometer (BD) after immunofluorescent staining with an anti-E mAb[47].

DENV-2 [5] = assay: Viral translation assay (NS3 western blot); assay type: cell-based, dengue virus; conditions: 1 µM added at 1 hpi, A549 cells, DENV-2 MOI 20
Experimental: A549 cells absorbed with DENV-2 (MOI 20) at 4 °C for 1 h were washed to remove unbound viruses. After incubating at 37 °C for 1 h to allow viral entry, cells were treated with P12-23 (1 µM), P12-34 (1 µM) or 2′-c-methyladenosine (20 µM). Cells were harvested at 2, 3, 4, and 6 hpi for western blot analysis as previously described[46] with an anti-NS3 mAb[47] and an anti-actin mAb (NB600-501; Novus Biologicals, Littleton, CO, USA). Protein expression levels were quantified using ImageJ.

DENV-2 [6] = assay: Viral RNA replication assay (RT-qPCR); assay type: cell-based, dengue virus; conditions: 1 µM added at 1 hpi versus 2′CMA 20 µM, A549 cells, DENV-2 MOI 5
Experimental: Viral infection (MOI 5) and drug treatment were performed as described for the virus translation assay. Cells were harvested for real-time RT-PCR analysis after removing the cell-free viruses at 1, 2, 3, 6, 9, 12, 18, and 27 hpi. Viral RNA was quantified and normalized with actin RNA as described for the virus binding assay.

A549 cells [7] = assay: ER stress and autophagy western blot in A549 cells; assay type: cell-based, human; conditions: 1 µM, 24 h
Experimental: Supplementary figure 2. […] A549 cells with or without DENV-2 (MOI 5) infection were treated with P12-23 (1 μM), tunicamycin (TM) (5 μg/ml), thapsigargin (TG) (0.5 μM), or chemical chaperon 4-Phenylbutyric acid (4-PBA) (10 mM) for 24 h. Cell lysates were harvested for western blot analysis with antibodies against the indicated proteins.

Which “effect on DENV replication” value (DENV-2-eGFP; A549 cells) does the source give for `Cc1c(-c2ccc(-c3ccccc3F)cc2)nc2ccc(F)cc2c1C(=O)O` [brequinar, reference compound] here?
Its value is “reduced DENV replication in a dose-dependent manner”.

Which “effect on DENV replication” value (DENV-2-eGFP; A549 cells) does the source give for `O=C(N[C@@H]1CCCc2c1[nH]c1ccc(Cl)cc21)c1ccccn1` [GSK983, reference compound] here?
Its value is “reduced DENV replication in a dose-dependent manner”.

For `CC(C)(N)C(=O)Nc1ccc(-n2cc(C(F)(F)F)cc2-c2ccc3c(ccc4ccccc43)c2)cc1` [P12-23], which CC50 at 24 h [1] is on record?
The CC50 at 24 h was ~20000 nM.

And the CC50 (A549 cells [2])?
The CC50 was 20500 ± 100 nM.

And the noncytotoxic concentrations (A549 cells [2])?
The noncytotoxic concentrations was ≤ 12.5 µM.

What about the “SI (CC50/IC50)” value (DENV-2-eGFP; A549 cells) of the same compound?
Its value is 297 and 296.7 ± 35.1.

And the IC50 (DENV-2-eGFP)?
Its IC50 is 69.7 ± 8.9 nM.

And the “relative potency versus AR-12 (fold)” value (JEV-eGFP; JEV, A549 cells)?
Its value is ~ 10 fold.

And the “SI (CC50/IC50)” value (JEV-eGFP; A549 cells)?
The value was 385.5 ± 11.8.

And the IC50 (JEV-eGFP)?
The IC50 was 53.2 ± 1.6 nM.

And the “SI (CC50/IC50)” value (ZIKV; A549 cells)?
The value was 158 ± 13.6.

And the “relative potency versus AR-12 (fold)” value (ZIKV; A549 cells)?
Its value is ~ 10 fold.

And the IC50 (ZIKV)?
Its IC50 is 130 ± 11.7 nM.

What about the “effect on viral binding” value (DENV-2 [3]) of the same compound?
Its value is “no suppressive effect”.

What about the “effect on viral entry” value (DENV-2 [4]) of the same compound?
The value was “no suppressive effect”.

What about the “effect on NS3 levels at early stage of infection (viral translation)” value (DENV-2 [5]) of the same compound?
The value was “did not reduce NS3 levels until 4~6 h post-infection”.

What about the “suppression of intracellular viral RNA replication” value (DENV-2 [6]) of the same compound?
Its value is “more potent than 2′CMA”.

And the “induction of ER stress (GRP78, eIF2α phosphorylation) or autophagy (LC3B form II)” value (A549 cells [7])?
Its value is “did not significantly induce ER stress”.

For `NCC(=O)Nc1ccc(-n2nc(C(F)(F)F)cc2-c2ccc3c(ccc4ccccc43)c2)cc1` [AR-12], which CC50 at 24 h [1] is on record?
The CC50 at 24 h was ~20000 nM.

What about the CC50 (A549 cells [2]) of the same compound?
Its CC50 is 21400 ± 200 nM.

What about the noncytotoxic concentrations (A549 cells [2]) of the same compound?
Its noncytotoxic concentrations is ≤ 12.5 µM.

And the “SI (CC50/IC50)” value (DENV-2-eGFP; A549 cells)?
The value was 33 and 33.2 ± 5.9.

And the IC50 (DENV-2-eGFP)?
The IC50 was 660 ± 130 nM.

And the “anti-DENV activity with uridine supplement” value (DENV-2-eGFP; uridine 50 µg/ml, P12-23 1 µM, P12-34 1 µM, AR-12 5 µM, A549 cells)?
Its value is “abolished”.

And the “SI (CC50/IC50)” value (JEV-eGFP; A549 cells)?
Its value is 42.3 ± 4.1.

And the IC50 (JEV-eGFP)?
Its IC50 is 510 ± 52.4 nM.

What about the “SI (CC50/IC50)” value (ZIKV; A549 cells) of the same compound?
The value was 15.8 ± 2.

And the IC50 (ZIKV)?
Its IC50 is 1370 ± 177 nM.

— publication PMC6246607, “Novel AR-12 derivatives, P12-23 and P12-34, inhibit flavivirus replication by blocking host de novo pyrimidine biosynthesis” (Emerging Microbes & Infections, 2018)
